One molecule from patent US11744818B2, “Application of trans-1,3-dilinolein in the preparation of medicaments for treating gastric cancer, stomachic tonic, health products and foods” (Lanzhou University, priority 2021, dated 2023) can be followed below.

Test [1] concerns human gastric cancer cell line HGC-27. As to the kind of experiment: Cytotoxicity to HGC-27 cells (MTS, 48 hours). The test is classed as cell-based. The note with it: for killing of gastric cancer cells: concentration of 300 μm and more; for killing effect on HGC-27: 0-500 μM, 48 hours. Here is the method:
(§1) At 37° C. and 5% CO2, human gastric cancer cell line HGC-27 cells and human gastric mucosal epithelial cell line GES-1 cells (coming from China Center for Type Culture Collection (Wuhan, China)) are respectively cultured in RPMI Medium Modified (Hyclone, SH30809.01) and Dulbecco's Modified Eagle's Medium-high glucose (Sigma, D6429), in which 10% fetal calf serum (Gibco, 10270-106) and 1% penicillin-streptomycin (Gibco, 15140-122) are supplemented.
The cytotoxicity of HGC-27 cells by trans-1,3-dilinolein is determined. 5000 cells are plated in a 96-well plate, and each well is added with 100 μL medium. 12 hours after cell attachment, each well is given 100 μL normal medium that contained different concentrations (0 μM, 50 μM, 100 μM, 200 μM, 300 μM, 400 μM, 500 μM) of trans-1,3-dilinolein and had been preheated, and cultured in incubators under the conditions of 5% CO2, 37° C., normal oxygen and 1% oxygen respectively for 48 hours. The medium in each well is drawn, and serum-free medium is added into each well to formulate 60 μL MTS (Promega) at ⅙ the initial concentration, which are correspondingly incubated in incubators under the conditions of 5% CO2, 37° C., normal oxygen and 1% oxygen for 2 hours. The absorbance at 490 nm is determined with a microplate reader (Thermo Scientific).
(§2) Two-side Student's t-test is conducted by using EXCEL to determine the statistical significance of two groups of measurements. P value<0.05 is considered to be statistically significant. Unless otherwise specified, all data are expressed as mean ±standard deviation.

The subject of test [2] is human gastric mucosal epithelial cell line GES-1. Put plainly: Proliferation of GES-1 cells (CCK8, 48 hours). The test is classed as cell-based. The note with it: for effect on the proliferation of GES-1: 25 μM to 400 μm, 48 hours. On the procedure:
as §1
The cytotoxicity of GES-1 cells by trans-1,3-dilinolein is determined. 10000 cells are plated in a 96-well plate, and each well is added with 100 μL medium. 12 hours after cell attachment, each well is given 100 μL normal medium that contained different concentrations (0 μM, 6.25 μM, 12.5 μM, 25 μM, 50 μM, 100 μM, 200 μM, 400 μM, 800 μM, 1000 μM) of trans-1,3-dilinolein and had been preheated, and cultured in incubators under the conditions of 5% CO2, 37° C., normal oxygen and 1% oxygen respectively for 48 hours. The medium in each well is drawn, and serum-free medium is added into each well to formulate 60 μL CCK8 (ABMole BioScience) at 1/11 the initial concentration, which are correspondingly incubated in incubators under the conditions of 5% CO2, 37° C., normal oxygen and 1% oxygen for 40 minutes. The absorbance at 450 nm is determined with a microplate reader (Thermo Scientific).
as §2

With `CCCCC/C=C/C/C=C/CCCCCCCC(=O)OCC(O)COC(=O)CCCCCCC/C=C/C/C=C/CCCCC` [trans-1,3-dilinolein, [2-hydroxy-3-[(9E,12E)-octadeca-9,12-dienoyl]oxypropyl](9E,12E)-octadeca-9,12-dienoate], the “killing of gastric cancer cells” value is “the killing effect is more significant” in test [1] (hypoxic conditions compared with normal oxygen) and “kills gastric cancer cells significantly” in test [1] (normal oxygen). Moreover, the “killing effect on HGC-27” value is listed as “stronger killing effect” in test [1] (hypoxic (1% oxygen) compared with normal oxygen, FIG. 4D) and “concentration-dependent killing effect” in test [1] (normal oxygen, FIG. 4C). Also, the “proliferation of normal gastric mucosal epithelial cells” value in test [2] (concentration of 300 μm and more) was “significantly promote the proliferation”. For the same molecule, the “effect on the proliferation of GES-1” value in test [2] (hypoxic (1% oxygen), FIG. 4B) is on record as “promotion effects on the proliferation”; in test [2] (normal oxygen, FIG. 4A), “promotion effects on the proliferation”.
